Test results published in ChEMBL document CHEMBL5131429, “Synthesis and antifungal evaluation of phenol-derived bis(indolyl)methanes combined with FLC against Candida albicans” (Bioorg Med Chem Lett, 2022).
≈ marks a conversion by molar mass, not a printed value. Calls of active or inactive are those of the source. The rule behind the calls is not given here.

Key:
Candida albicans [1] = assay: Antifungal activity against Candida albicans SC5314 by microdilution method; type: functional
Candida albicans [2] = assay: Antifungal activity against Candida albicans CA23 by microdilution method; type: functional
Candida albicans [3] = assay: Antifungal activity against Candida albicans CA23 assessed as fractional inhibitory concentration index in presence of fluconazole by microdilution method; type: functional
Candida albicans [4] = assay: Antifungal activity against Candida albicans CA23 in presence of fluconazole by microdilution method; type: functional
Candida albicans [5] = assay: Antifungal activity against Candida albicans SC5314 assessed as fractional inhibitory concentration index in presence of fluconazole by microdilution method; type: functional
Candida albicans [6] = assay: Antifungal activity against Candida albicans SC5314 in presence of fluconazole by microdilution method; type: functional
Candida albicans [7] = assay: Antifungal activity against Candida albicans CA3816 by microdilution method; type: functional
Candida albicans [8] = assay: Antifungal activity against Candida albicans CA558 by microdilution method; type: functional
Candida albicans [9] = assay: Antifungal activity against Candida albicans CA800 by microdilution method; type: functional
Candida albicans [10] = assay: Antifungal activity against Candida albicans CA3511 by microdilution method; type: functional
[11] = Cytotoxicity against human 16HBE by MTS assay; type: toxicity, cell-based; conditions: 16HBE14o- cells
Candida albicans [12] = assay: Induction of mitochondrial membrane potential loss in Candida albicans at 1 ug/ml after 16 hrs by JC-1 staining based fluorescence microplate reader; type: functional, organism-based; conditions: dose 1.0 µg/ml
[13] = Cytotoxicity against PBMC (unknown origin) by MTT assay; type: toxicity, cell-based
Candida albicans [14] = assay: Antifungal activity against Candida albicans CA602 by microdilution method; type: functional
Candida albicans [15] = assay: Antifungal activity against Candida albicans CA187 by microdilution method; type: functional
Candida albicans [16] = assay: Antifungal activity against Candida albicans CA5408 by microdilution method; type: functional
Candida albicans [17] = assay: Antifungal activity against Candida albicans ATCC14053 by microdilution method; type: functional
Candida albicans [18] = assay: Antifungal activity against Candida albicans ATCC14053 assessed as shortened length of hyphae at 2 ug/mL in presence of 1 ug/mL fluconazole by microscopic analysis; type: functional, organism-based; conditions: dose 2.0 µg/ml
Candida albicans [19] = assay: Antifungal activity against Candida albicans ATCC14053 in presence of fluconazole by microdilution method; type: functional
Candida albicans [20] = assay: Antifungal activity against Candida albicans CA187 assessed as fractional inhibitory concentration index in presence of fluconazole by microdilution method; type: functional
Candida albicans [21] = assay: Induction of mitochondrial membrane potential loss in Candida albicans at 2 ug/ml after 16 hrs in presence of 1 ug/mL fluconazole by JC-1 staining based fluorescence microplate reader; type: functional, organism-based; conditions: dose 2.0 µg/ml
Candida albicans [22] = assay: Antifungal activity against Candida albicans ATCC14053 assessed as decrease in number of hyphae at 2 ug/mL in presence of 1 ug/mL fluconazole by microscopic analysis; type: functional, organism-based; conditions: dose 2.0 µg/ml
Candida albicans [23] = assay: Antifungal activity against Candida albicans CA558 in presence of fluconazole by microdilution method; type: functional
Candida albicans [24] = assay: Antifungal activity against Candida albicans CA3511 assessed as fractional inhibitory concentration index in presence of fluconazole by microdilution method; type: functional
Candida albicans [25] = assay: Antifungal activity against Candida albicans CA3816 assessed as fractional inhibitory concentration index in presence of fluconazole by microdilution method; type: functional
Candida albicans [26] = assay: Antifungal activity against Candida albicans CA800 assessed as fractional inhibitory concentration index in presence of fluconazole by microdilution method; type: functional
Candida albicans [27] = assay: Antifungal activity against Candida albicans CA5408 in presence of fluconazole by microdilution method; type: functional
Candida albicans [28] = assay: Antifungal activity against Candida albicans CA558 assessed as fractional inhibitory concentration index in presence of fluconazole by microdilution method; type: functional
Candida albicans [29] = assay: Antifungal activity against Candida albicans CA5408 assessed as fractional inhibitory concentration index in presence of fluconazole by microdilution method; type: functional
Candida albicans [30] = assay: Effect on cell membrane permeability ib Candida albicans assessed as cell membrane damage at 2 ug/ml measured after 8 to 24 hrs in presence of 1 ug/mL fluconazole by PI staining based fluorescence analysis; type: functional; conditions: dose 2.0 µg/ml, time 8-24 hrs
Candida albicans [31] = assay: Antifungal activity against Candida albicans ATCC14053 assessed as fractional inhibitory concentration index in presence of fluconazole by microdilution method; type: functional
Candida albicans [32] = assay: Induction of mitochondrial membrane potential loss in Candida albicans at 2 ug/ml after 16 hrs by JC-1 staining based fluorescence microplate reader; type: functional, organism-based; conditions: dose 2.0 µg/ml
Candida albicans [33] = assay: Induction of ROS production in Candida albicans at 2 ug/ml in presence of 1 ug/mL fluconazole by DCFH-DA assay; type: functional; conditions: dose 2.0 µg/ml
Candida albicans [34] = assay: Antifungal activity against Candida albicans at 2 ug/mL in presence of 1 ug/mL fluconazole by Time-kill curve assay; type: functional, organism-based; conditions: dose 2.0 µg/ml
Candida albicans [35] = assay: Antifungal activity against Candida albicans CA602 in presence of fluconazole by microdilution method; type: functional
Candida albicans [36] = assay: Antifungal activity against Candida albicans CA800 in presence of fluconazole by microdilution method; type: functional
Candida albicans [37] = assay: Antifungal activity against Candida albicans CA602 assessed as fractional inhibitory concentration index in presence of fluconazole by microdilution method; type: functional
Candida albicans [38] = assay: Antifungal activity against Candida albicans CA3511 in presence of fluconazole by microdilution method; type: functional
Candida albicans [39] = assay: Antifungal activity against Candida albicans CA3816 in presence of fluconazole by microdilution method; type: functional
Candida albicans [40] = assay: Antifungal activity against Candida albicans CA187 in presence of fluconazole by microdilution method; type: functional

SMILES: Oc1cc(F)c(Br)cc1C(c1c[nH]c2ccccc12)c1c[nH]c2ccccc12
- MIC80 (Candida albicans [1]): 4.97 µg/mL (≈ 11.4 µM)
- MIC80 (Candida albicans [2]): > 200 µg/mL
- fractional inhibitory concentration index (FICI) (Candida albicans [3]): 0.02
- MIC80 (Candida albicans [4]): 5.95 µg/mL
- fractional inhibitory concentration index (FICI) (Candida albicans [5]): 0.2
- MIC80 (Candida albicans [6]): 0.82 µg/mL

SMILES: Oc1c(Cl)cc(Cl)cc1C(c1c[nH]c2ccccc12)c1c[nH]c2ccccc12
- MIC80 (Candida albicans [1]): > 200 µg/mL
- MIC80 (Candida albicans [2]): > 200 µg/mL
- fractional inhibitory concentration index (FICI) (Candida albicans [3]): 0.02
- MIC80 (Candida albicans [4]): 5.88 µg/mL
- fractional inhibitory concentration index (FICI) (Candida albicans [5]): 0.02
- MIC80 (Candida albicans [6]): 0.55 µg/mL

SMILES: Oc1ccc(Br)cc1C(c1c[nH]c2ccccc12)c1c[nH]c2ccccc12
- MIC80 (Candida albicans [1]): > 200 µg/mL
- MIC80 (Candida albicans [2]): > 200 µg/mL
- fractional inhibitory concentration index (FICI) (Candida albicans [3]): 0.02
- MIC80 (Candida albicans [4]): 5.81 µg/mL
- fractional inhibitory concentration index (FICI) (Candida albicans [5]): 0.13
- MIC80 (Candida albicans [6]): 3.58 µg/mL

SMILES: O=[N+]([O-])c1ccc(O)c(C(c2c[nH]c3ccccc23)c2c[nH]c3ccccc23)c1
- MIC80 (Candida albicans [1]): 0.69 µg/mL (≈ 1.8 µM)
- MIC80 (Candida albicans [2]): 180 µg/mL (≈ 471 µM)
- fractional inhibitory concentration index (FICI) (Candida albicans [3]): 0.18
- MIC80 (Candida albicans [4]): 29.3 µg/mL
- MIC80 (Candida albicans [6]): 25.6 µg/mL

SMILES: OC(Cn1cncn1)(Cn1cncn1)c1ccc(F)cc1F [FLUCONAZOLE]
- MIC80 (Candida albicans [7]): > 200 µg/mL
- MIC80 (Candida albicans [8]): > 200 µg/mL
- MIC80 (Candida albicans [1]): 5.79 µg/mL (≈ 18.9 µM)
- MIC80 (Candida albicans [9]): > 200 µg/mL
- MIC80 (Candida albicans [2]): > 200 µg/mL
- MIC80 (Candida albicans [10]): > 200 µg/mL
- CC50 [11]: > 1000 µg/mL
- Activity (Candida albicans [12]): Active
- CC50 [13]: 676 µg/mL (≈ 2210 µM)
- MIC80 (Candida albicans [14]): > 200 µg/mL
- MIC80 (Candida albicans [15]): > 200 µg/mL
- MIC80 (Candida albicans [16]): > 200 µg/mL
- MIC80 (Candida albicans [17]): > 200 µg/mL

SMILES: Oc1c(Br)cccc1C(c1c[nH]c2ccccc12)c1c[nH]c2ccccc12
- Activity (Candida albicans [18]): Active
- MIC80 (Candida albicans [7]): > 200 µg/mL
- MIC80 (Candida albicans [8]): > 200 µg/mL
- MIC80 (Candida albicans [1]): > 200 µg/mL
- MIC80 (Candida albicans [9]): > 200 µg/mL
- MIC80 (Candida albicans [19]): 1.37 µg/mL
- MIC80 (Candida albicans [2]): > 200 µg/mL
- fractional inhibitory concentration index (FICI) (Candida albicans [3]): 0.02
- MIC80 (Candida albicans [10]): > 200 µg/mL
- fractional inhibitory concentration index (FICI) (Candida albicans [20]): 0.02
- Activity (Candida albicans [21]): Active
- CC50 [11]: 35.6 µg/mL (≈ 85.3 µM)
- Activity (Candida albicans [22]): Active
- MIC80 (Candida albicans [23]): 5.61 µg/mL
- fractional inhibitory concentration index (FICI) (Candida albicans [24]): 0.03
- fractional inhibitory concentration index (FICI) (Candida albicans [25]): 0.01
- MIC80 (Candida albicans [4]): 5.82 µg/mL
- fractional inhibitory concentration index (FICI) (Candida albicans [26]): 0.01
- CC50 [13]: 32.7 µg/mL (≈ 78.5 µM)
- MIC80 (Candida albicans [27]): 1.33 µg/mL
- fractional inhibitory concentration index (FICI) (Candida albicans [28]): 0.03
- fractional inhibitory concentration index (FICI) (Candida albicans [29]): 0.01
- Activity (Candida albicans [30]): Active
- fractional inhibitory concentration index (FICI) (Candida albicans [31]): 0.01
- MIC80 (Candida albicans [14]): > 200 µg/mL
- fractional inhibitory concentration index (FICI) (Candida albicans [5]): 0.04
- Activity (Candida albicans [32]): Active
- Activity (Candida albicans [33]): Active
- Activity (Candida albicans [34]): Active
- MIC80 (Candida albicans [35]): 5.69 µg/mL
- MIC80 (Candida albicans [36]): 2.63 µg/mL
- fractional inhibitory concentration index (FICI) (Candida albicans [37]): 0.03
- MIC80 (Candida albicans [15]): > 200 µg/mL
- MIC80 (Candida albicans [16]): > 200 µg/mL
- MIC80 (Candida albicans [38]): 5.96 µg/mL
- MIC80 (Candida albicans [39]): 1.38 µg/mL
- MIC80 (Candida albicans [17]): > 200 µg/mL
- MIC80 (Candida albicans [40]): 4.5 µg/mL
- MIC80 (Candida albicans [6]): 1.22 µg/mL

SMILES: Oc1c(Cl)cccc1C(c1c[nH]c2ccccc12)c1c[nH]c2ccccc12
- MIC80 (Candida albicans [1]): > 200 µg/mL
- MIC80 (Candida albicans [2]): > 200 µg/mL
- fractional inhibitory concentration index (FICI) (Candida albicans [3]): 0.02
- MIC80 (Candida albicans [4]): 5.82 µg/mL
- fractional inhibitory concentration index (FICI) (Candida albicans [5]): 0.05
- MIC80 (Candida albicans [6]): 1.31 µg/mL

SMILES: Cc1ccc(C(c2c[nH]c3ccccc23)c2c[nH]c3ccccc23)c(O)c1
- MIC80 (Candida albicans [1]): > 200 µg/mL
- MIC80 (Candida albicans [2]): 37 µg/mL (≈ 105 µM)
- fractional inhibitory concentration index (FICI) (Candida albicans [3]): 0.02
- MIC80 (Candida albicans [4]): 5.75 µg/mL
- fractional inhibitory concentration index (FICI) (Candida albicans [5]): 0.14
- MIC80 (Candida albicans [6]): 3.67 µg/mL

SMILES: Oc1cc(F)ccc1C(c1c[nH]c2ccccc12)c1c[nH]c2ccccc12
- MIC80 (Candida albicans [1]): > 200 µg/mL
- MIC80 (Candida albicans [2]): > 200 µg/mL
- fractional inhibitory concentration index (FICI) (Candida albicans [3]): 0.02
- MIC80 (Candida albicans [4]): 7.4 µg/mL
- fractional inhibitory concentration index (FICI) (Candida albicans [5]): 0.58
- MIC80 (Candida albicans [6]): 15.5 µg/mL
